# In ChEMBL document CHEMBL1150305, “Synthesis and in vitro PDT activity of miscellaneous porphyrins with amino acid and uracil” (2008):
# Experiment: Photocytotoxicity against human Ec9706 cells after 2.5 hrs irradiation measured after 24 hrs incubation in dark by MTT assay
# Format: functional
row,SMILES,inhibition (INH) [%]
1,N[C@@H](Cc1ccccc1)C(=O)Nc1ccc(-c2c3nc(c(-c4ccc(NC(=O)Cn5cc(F)c(=O)[nH]c5=O)cc4)c4ccc([nH]4)c(-c4ccccc4)c4nc(c(-c5ccccc5)c5ccc2[nH]5)C=C4)C=C3)cc1,69.45
2,CC(C)(C)OC(=O)N[C@@H](Cc1ccccc1)C(=O)Nc1ccc(-c2c3nc(c(-c4ccc(N)cc4)c4ccc([nH]4)c(-c4ccccc4)c4nc(c(-c5ccccc5)c5ccc2[nH]5)C=C4)C=C3)cc1,47.21
3,CC(C)(C)OC(=O)N[C@@H](Cc1ccccc1)C(=O)Nc1ccc(-c2c3nc(c(-c4ccc(NC(=O)[C@H](Cc5ccccc5)NC(=O)OC(C)(C)C)cc4)c4ccc([nH]4)c(-c4ccccc4)c4nc(c(-c5ccccc5)c5ccc2[nH]5)C=C4)C=C3)cc1,100
4,Nc1ccc(-c2c3nc(c(-c4ccc(NC(=O)Cn5cc(F)c(=O)[nH]c5=O)cc4)c4ccc([nH]4)c(-c4ccccc4)c4nc(c(-c5ccccc5)c5ccc2[nH]5)C=C4)C=C3)cc1,97.09
5,Nc1ccc(-c2c3nc(c(-c4ccc(NC(=O)[C@@H](N)Cc5ccccc5)cc4)c4ccc([nH]4)c(-c4ccccc4)c4nc(c(-c5ccccc5)c5ccc2[nH]5)C=C4)C=C3)cc1,37.94
6,CC(C)(C)OC(=O)N[C@@H](Cc1ccccc1)C(=O)Nc1ccc(-c2c3nc(c(-c4ccc(NC(=O)Cn5cc(F)c(=O)[nH]c5=O)cc4)c4ccc([nH]4)c(-c4ccccc4)c4nc(c(-c5ccccc5)c5ccc2[nH]5)C=C4)C=C3)cc1,88.65
7,Nc1ccc(-c2c3nc(c(-c4ccc(N)cc4)c4ccc([nH]4)c(-c4ccccc4)c4nc(c(-c5ccccc5)c5ccc2[nH]5)C=C4)C=C3)cc1,66.6
8,N[C@@H](Cc1ccccc1)C(=O)Nc1ccc(-c2c3nc(c(-c4ccc(NC(=O)[C@@H](N)Cc5ccccc5)cc4)c4ccc([nH]4)c(-c4ccccc4)c4nc(c(-c5ccccc5)c5ccc2[nH]5)C=C4)C=C3)cc1,96.13
9,O=C(Cn1cc(F)c(=O)[nH]c1=O)Nc1ccc(-c2c3nc(c(-c4ccc(NC(=O)Cn5cc(F)c(=O)[nH]c5=O)cc4)c4ccc([nH]4)c(-c4ccccc4)c4nc(c(-c5ccccc5)c5ccc2[nH]5)C=C4)C=C3)cc1,100
